According to patent US9611253B2, “Solid forms comprising optically active pyrazolylaminoquinazoline, compositions thereof, and uses therewith” (AMBIT BIOSCIENCES CORPORATION, priority 2012, dated 2017):

What was measured:
[1] = Solubility/crystallization screen of Compound 6 salts (20 mg salt, solvent, heating, then standing)
Protocol: The resulting solids were analyzed by DSC and portions of each salt were tested for solubility and crystallization from the following solvents:
20 mg of salt was charged to a 1-dram screw-top vial. Solvent (enough to cover the solids) was added, the vial was capped and heated (heat gun) to aid dissolution. If no, or partial dissolution was observed, the vial was allowed to cool, additional solvent was added and the process repeated. The solubility was characterized as follows: Soluble (sol): the solids dissolved upon heating, Sparingly soluble (sp): the solids dissolved upon heating after two or more additions of solvent or Insoluble (I): complete dissolution could not be achieved. […] The vials containing solids were filtered and analyzed by DSC.

[2] = Solubility in ethanol observed during salt formation; format: physicochemical
Protocol: To a 2-L Morton flask equipped with a heating mantle, thermocouple, condenser and mechanical stirrer was charged (4-fluorophenyl)(4-((5-methyl-1H-pyrazol-3-yl)amino)quinazolin-2-yl)methanol free base (40.20 g, 115 mmol, 1.0 equiv.). Ethanol (1.6 L) was added and the suspension was stirred and heated to reflux (78° C., internal temperature) until dissolution of the suspension was observed. Ethanesulfonic acid (9.4 mL, 115 mmol, 1.0 equiv.) was charged to the resulting yellow solution. Reflux was maintained for 1 hour, then heating was discontinued and the reaction was allowed to cool to room temperature and stirred overnight. Stirring was stopped and the solids were allowed to settle. The reaction was filtered and the initial isolated product (R)-(4-fluorophenyl)(4-((5-methyl-1H-pyrazol-3-yl)amino)quinazolin-2-yl)methanol dried in a vacuum oven (45° C., ˜20 torr) for 3 days to produce 29.69 g, 65 mmol, 56% yield. The supernatant was concentrated and a second crop of the product was obtained and dried as the first to produce 10.52 g, 23 mmol, 20% yield.
The combined yield for the two crops was 76%. […] Higher yields of salt can be obtained by reducing the amount of ethanol. […]

[3] = Stability of esylate salt in water and aqueous ethanol (dissociation to free base); format: physicochemical; conditions: in water and aqueous ethanol solutions
Text: Spontaneous precipitation from the aqueous solution afforded Compound 6 as free base; a new crystalline XRPD pattern was observed (See FIG. 38). The free base of Compound 6 was partially precipitated upon water addition to the ethanol solution and was further recovered by evaporation of the ethanol: water solution. These observations indicate the esylate salt is unstable in water and aqueous ethanol due to dissociation.
A new crystalline XRPD pattern designated as Form A of the free base of Compound 6 was observed from precipitation in ethanol with water (antisolvent) when amorphous ethanesulfonate salt of Compound 6 was used. (FIG. 38, top pattern). Summary of the data obtained for Form A of the free base is shown below in Table 16. […] The Compound 6 free base was recovered by further evaporation of the aqueous ethanol solution. […] These observations indicate the esylate salt is unstable due to dissociation in water and aqueous ethanol solutions.

[4] = standing 1 h after cooling to room temperature
[5] = standing 4 d after cooling to room temperature

Solubility in EtOH ([1]; Heating): sol
Solubility in H2O ([1]; Heating): sol
Solubility in IPA ([1]; Heating): sol
Solubility in MeOH ([1]; Heating): sol
Solubility/crystallization in EtOH [1, 4]: cryst
Solubility/crystallization in H2O [1, 4]: gels
Solubility/crystallization in IPA [1, 4]: cryst
Solubility/crystallization in MeOH [1, 4]: sol
Solubility/crystallization in EtOH [1, 5]: cryst
Solubility/crystallization in IPA [1, 5]: cryst
Solubility/crystallization in MeOH [1, 5]: sol
Solubility in ethanol compared to the free base [2]: higher solubility in ethanol
Stability of the salt (dissociation to free base) [3]: unstable
SMILES: CCS(=O)(=O)O [Ethanesulfonic acid]
